Assay [1] concerns Staphylococcus epidermidis. Put plainly: Antimicrobial activity against Staphylococcus epidermidis ATCC 35984 after 10 hrs. As to conditions: ATCC 35984, 10 h. In kind it is functional.
The target in assay [2] is T1, Sensor protein kinase WalK (Staphylococcus epidermidis (strain ATCC 35984 / RP62A), UniProt Q5HK19).
T1 sequence (Q5HK19 whole entry): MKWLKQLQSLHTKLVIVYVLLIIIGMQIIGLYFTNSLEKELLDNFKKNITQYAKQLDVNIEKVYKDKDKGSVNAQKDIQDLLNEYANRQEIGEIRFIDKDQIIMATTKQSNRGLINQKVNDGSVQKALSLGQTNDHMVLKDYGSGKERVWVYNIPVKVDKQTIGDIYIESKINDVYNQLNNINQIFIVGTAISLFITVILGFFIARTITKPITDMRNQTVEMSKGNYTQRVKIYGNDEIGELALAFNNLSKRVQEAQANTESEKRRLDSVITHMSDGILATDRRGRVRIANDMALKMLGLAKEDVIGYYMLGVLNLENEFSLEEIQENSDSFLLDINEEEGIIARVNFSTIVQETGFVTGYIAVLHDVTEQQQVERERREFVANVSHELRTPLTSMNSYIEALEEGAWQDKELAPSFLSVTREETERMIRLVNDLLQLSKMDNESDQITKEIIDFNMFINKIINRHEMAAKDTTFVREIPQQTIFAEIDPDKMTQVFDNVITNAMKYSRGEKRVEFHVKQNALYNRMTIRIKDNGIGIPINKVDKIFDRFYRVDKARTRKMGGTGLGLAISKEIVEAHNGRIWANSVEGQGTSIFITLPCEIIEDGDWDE
Put plainly: Inhibition of recombinant Staphylococcus epidermidis ATCC 35984 N-terminal GB1-tagged YycG expressed in Escherichia coli BL21 (DE3) preincubated for 30 mins followed by ATP addition after 30 mins by kinase-glo assay. On the technique in general: In Kinase-Glo more light means more ATP remaining.

Assay [3] concerns Escherichia coli. Put plainly: Antimicrobial activity against Escherichia coli CFT073 after 24 hrs by double dilution method. As to conditions: CFT073, 24 h. It is filed as functional.
In assay [4] the target is T2, Phosphate regulon sensor protein PhoR (Escherichia coli (strain K12), UniProt P08400).
T2 sequence (P08400 whole entry): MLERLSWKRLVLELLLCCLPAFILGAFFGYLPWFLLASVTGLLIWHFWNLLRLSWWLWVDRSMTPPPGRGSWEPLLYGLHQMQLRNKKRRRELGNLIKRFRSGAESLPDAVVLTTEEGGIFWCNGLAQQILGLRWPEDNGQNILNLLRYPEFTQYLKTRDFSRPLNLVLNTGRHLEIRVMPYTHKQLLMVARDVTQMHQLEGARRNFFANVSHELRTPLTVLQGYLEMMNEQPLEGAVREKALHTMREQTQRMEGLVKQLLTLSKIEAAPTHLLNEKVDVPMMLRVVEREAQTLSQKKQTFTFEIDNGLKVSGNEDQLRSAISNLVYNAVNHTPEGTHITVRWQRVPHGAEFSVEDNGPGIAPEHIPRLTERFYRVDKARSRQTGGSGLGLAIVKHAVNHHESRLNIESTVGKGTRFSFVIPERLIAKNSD
Put plainly: Inhibition of Escherichia coli DHp-catalytic domain PhoR autophosphorylation expressed in Escherichia coli RIL in presence of gamma-32P-ATP by SDS-PAGE analysis.

For another assay, the system named is Staphylococcus aureus. Put plainly: Antimicrobial activity against Staphylococcus aureus 20231 after 24 hrs by double dilution method. It is filed as functional. As to conditions: Staphylococcus aureus, 20231, 24 h.
For assay [5], the target named is T3, Phosphate regulon sensor protein phoR (Staphylococcus aureus subsp. aureus CN1, UniProt T1Y9P4).
T3 sequence (T1Y9P4 whole entry): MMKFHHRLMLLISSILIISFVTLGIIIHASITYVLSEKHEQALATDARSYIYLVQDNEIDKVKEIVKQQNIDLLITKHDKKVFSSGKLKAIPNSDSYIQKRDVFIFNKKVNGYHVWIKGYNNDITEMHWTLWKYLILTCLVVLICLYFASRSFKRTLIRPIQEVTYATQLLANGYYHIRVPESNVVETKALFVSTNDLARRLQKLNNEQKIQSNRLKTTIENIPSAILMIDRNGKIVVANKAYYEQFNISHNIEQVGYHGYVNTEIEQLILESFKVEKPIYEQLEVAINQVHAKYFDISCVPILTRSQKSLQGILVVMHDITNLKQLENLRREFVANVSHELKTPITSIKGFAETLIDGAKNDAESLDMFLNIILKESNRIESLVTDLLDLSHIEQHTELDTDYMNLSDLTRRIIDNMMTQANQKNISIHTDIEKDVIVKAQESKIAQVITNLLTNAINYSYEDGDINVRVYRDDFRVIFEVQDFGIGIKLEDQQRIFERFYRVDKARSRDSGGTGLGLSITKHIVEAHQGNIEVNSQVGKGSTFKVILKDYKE
Put plainly: Inhibition of Staphylococcus aureus DHp-catalytic domain PhoR autophosphorylation expressed in Escherichia coli RIL in presence of gamma-32P-ATP by SDS-PAGE analysis.

The test system of assay [6] is Escherichia coli. Put plainly: Antimicrobial activity against Escherichia coli DC2 after 20 hrs by Mueller-Hinton Broth microdilution method. The conditions noted are these: DC2, 20 h. In kind it is functional. In general terms: Dilution methods test growth across graded concentrations, often in twofold steps.
Assay [7] is described as follows: Inhibition of Thermotoga maritima HK853 preincubated for 30 mins followed by B-ATPgammaS addition after 1 hr in dark by in-gel fluorescence analysis.
The target in another assay is T4, Chemotaxis protein CheA (Escherichia coli (strain K12), UniProt P07363).
T4 sequence (P07363 whole entry): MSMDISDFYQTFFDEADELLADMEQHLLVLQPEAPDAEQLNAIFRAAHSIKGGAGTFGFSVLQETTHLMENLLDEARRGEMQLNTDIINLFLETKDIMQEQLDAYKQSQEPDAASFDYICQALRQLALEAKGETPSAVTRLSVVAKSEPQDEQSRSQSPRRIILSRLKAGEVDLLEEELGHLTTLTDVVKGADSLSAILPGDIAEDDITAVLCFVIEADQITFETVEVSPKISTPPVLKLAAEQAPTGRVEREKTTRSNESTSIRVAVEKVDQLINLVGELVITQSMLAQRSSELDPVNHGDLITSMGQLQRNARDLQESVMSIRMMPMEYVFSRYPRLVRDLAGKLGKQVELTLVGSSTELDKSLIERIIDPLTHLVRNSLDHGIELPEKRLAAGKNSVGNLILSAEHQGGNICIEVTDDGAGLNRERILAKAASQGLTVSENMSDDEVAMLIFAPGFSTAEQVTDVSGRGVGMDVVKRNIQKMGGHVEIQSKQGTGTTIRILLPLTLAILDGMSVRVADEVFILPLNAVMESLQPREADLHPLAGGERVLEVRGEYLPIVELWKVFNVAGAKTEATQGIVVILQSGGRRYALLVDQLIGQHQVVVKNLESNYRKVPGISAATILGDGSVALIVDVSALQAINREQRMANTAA
Put plainly: Inhibition of Escherichia coli CheA preincubated for 30 mins followed by [gamma-33P]ATP addition after 30 mins by SDS-PAGE method.

Another assay concerns Bacillus subtilis. Put plainly: Antimicrobial activity against Bacillus subtilis 3610 after 20 hrs by Mueller-Hinton Broth microdilution method. As to conditions: subsp. subtilis str. NCIB 3610, 20 h. In kind it is functional.
Assay [8] has as its target T5, Sensor protein kinase WalK family protein (Streptococcus pneumoniae PCS8203, UniProt A0A0H2UQD0).
T5 sequence (A0A0H2UQD0 whole entry): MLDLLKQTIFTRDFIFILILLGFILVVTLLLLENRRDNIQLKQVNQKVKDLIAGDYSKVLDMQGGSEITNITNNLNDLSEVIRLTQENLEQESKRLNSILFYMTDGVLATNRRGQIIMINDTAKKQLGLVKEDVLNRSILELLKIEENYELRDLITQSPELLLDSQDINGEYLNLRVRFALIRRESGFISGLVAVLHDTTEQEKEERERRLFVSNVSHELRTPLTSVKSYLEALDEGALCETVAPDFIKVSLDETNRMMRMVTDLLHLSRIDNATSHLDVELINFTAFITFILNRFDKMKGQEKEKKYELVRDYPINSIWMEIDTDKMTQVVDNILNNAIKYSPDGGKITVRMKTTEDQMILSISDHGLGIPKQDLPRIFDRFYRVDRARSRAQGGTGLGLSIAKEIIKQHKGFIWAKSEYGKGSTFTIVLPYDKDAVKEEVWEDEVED
Put plainly: Inhibition of Streptococcus pneumoniae VicK preincubated for 30 mins followed by [gamma-33P]ATP addition after 30 mins by SDS-PAGE method.

Molecules are shown by their SMILES. ≈ marks a conversion by molar mass, not a printed value.

As usually defined, the MIC is the least concentration at which growth counts as inhibited. The IC50 is the concentration at which inhibition is half-maximal.

`O=C(O)c1cccc(-c2ccc(/C=c3\sc4n(c3=O)C(c3ccc(F)cc3)C=C(c3ccccc3)N=4)o2)c1` (stereo unspecified) gave an MIC in [1] of 1.6 µg/mL (≈ 3.06 µM). Also, the IC50 in assay [2] turned out to be 24 µM.
In the case of `CCC(c1ccc(O)cc1)C(CC)c1ccc(F)cc1` (stereo unspecified), the MIC against Escherichia coli [3] is more than 500 µg/mL; with Staphylococcus aureus, 8 µg/mL (≈ 29.4 µM). Moreover, the IC50 amounted to 16 µM in [4] and 212 µM in [5].
As for `O=c1cc(-c2ccc(O)c(O)c2)oc2cc(O)cc(O)c12` [LUTEOLIN], the MIC is 8 µg/mL (≈ 27.9 µM) with Escherichia coli [6] and more than 128 µg/mL with Bacillus subtilis. In addition, the figures for the IC50 (in assay [7]; against Chemotaxis protein CheA; in assay [8]) were 15.1 µM, 111 µM and 216 µM, respectively.

The values are drawn from ChEMBL document CHEMBL4184156, “Repurposing Hsp90 inhibitors as antibiotics targeting histidine kinases” (Bioorg Med Chem Lett, 2017).
